These are literature values, as cited in patent publication US20250127693A1, “Materials for Desensitization and Targeted Drug Delivery to Teeth and Gums” (South Dakota Board of Regents, priority 2023, published 2025).

Data set [1] has as its system cancerous cells.
Data set [2] deals with mammalian cells. Particulars: prolonged exposures.

Consider `C=CCc1ccc(O)c(OC)c1` [eugenol], for which the “concentration at which eugenol inhibits proliferation of cancerous cells” value in data set [1] was 82 µg/mL. Moreover, the “concentration at which toxicity for mammalian cells starts” value in data set [2] was 164 µg/mL.
